From ChEMBL document CHEMBL3351771, “Development of inhibitors of the 2C-methyl-D-erythritol 4-phosphate (MEP) pathway enzymes as potential anti-infective agents” (J Med Chem, 2014)
In brackets after ≈: the same amount, converted by molar mass.

Assays:
[1] = target: T1, 1-deoxy-D-xylulose-5-phosphate synthase (Deinococcus radiodurans (strain ATCC 13939 / DSM 20539 / JCM 16871 /LMG 4051 / NBRC 15346 / NCIMB 9279 / R1 / VKM B-1422), UniProt Q9RUB5); test: Inhibition of Deinococcus radiodurans DXS
T1 sequence (Q9RUB5 whole entry): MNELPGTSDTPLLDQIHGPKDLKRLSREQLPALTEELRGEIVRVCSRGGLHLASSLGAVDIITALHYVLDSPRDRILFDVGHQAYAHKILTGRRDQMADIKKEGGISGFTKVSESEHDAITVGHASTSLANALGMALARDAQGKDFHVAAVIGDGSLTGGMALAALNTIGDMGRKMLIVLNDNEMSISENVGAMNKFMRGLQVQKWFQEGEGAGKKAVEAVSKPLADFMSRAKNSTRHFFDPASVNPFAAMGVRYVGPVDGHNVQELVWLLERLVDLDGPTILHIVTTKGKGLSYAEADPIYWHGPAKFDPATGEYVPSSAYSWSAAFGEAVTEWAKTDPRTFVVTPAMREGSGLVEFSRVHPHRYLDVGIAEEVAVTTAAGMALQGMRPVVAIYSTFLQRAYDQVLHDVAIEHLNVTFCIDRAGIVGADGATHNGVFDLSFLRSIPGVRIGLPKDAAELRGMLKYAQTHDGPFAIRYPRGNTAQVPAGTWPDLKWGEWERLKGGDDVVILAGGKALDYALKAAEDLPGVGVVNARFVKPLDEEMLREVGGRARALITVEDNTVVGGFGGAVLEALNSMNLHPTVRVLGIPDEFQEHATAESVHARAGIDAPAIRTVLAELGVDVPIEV

[2] = Inhibition of Aquifex aeolicus IspH
[3] = Inhibition of Arabidopsis thaliana IspD
[4] = target: T2, 1-deoxy-D-xylulose-5-phosphate synthase (Haemophilus influenzae (strain 86-028NP), UniProt Q4QKG6); test: Inhibition of Haemophilus influenzae DXS
T2 sequence (Q4QKG6 whole entry): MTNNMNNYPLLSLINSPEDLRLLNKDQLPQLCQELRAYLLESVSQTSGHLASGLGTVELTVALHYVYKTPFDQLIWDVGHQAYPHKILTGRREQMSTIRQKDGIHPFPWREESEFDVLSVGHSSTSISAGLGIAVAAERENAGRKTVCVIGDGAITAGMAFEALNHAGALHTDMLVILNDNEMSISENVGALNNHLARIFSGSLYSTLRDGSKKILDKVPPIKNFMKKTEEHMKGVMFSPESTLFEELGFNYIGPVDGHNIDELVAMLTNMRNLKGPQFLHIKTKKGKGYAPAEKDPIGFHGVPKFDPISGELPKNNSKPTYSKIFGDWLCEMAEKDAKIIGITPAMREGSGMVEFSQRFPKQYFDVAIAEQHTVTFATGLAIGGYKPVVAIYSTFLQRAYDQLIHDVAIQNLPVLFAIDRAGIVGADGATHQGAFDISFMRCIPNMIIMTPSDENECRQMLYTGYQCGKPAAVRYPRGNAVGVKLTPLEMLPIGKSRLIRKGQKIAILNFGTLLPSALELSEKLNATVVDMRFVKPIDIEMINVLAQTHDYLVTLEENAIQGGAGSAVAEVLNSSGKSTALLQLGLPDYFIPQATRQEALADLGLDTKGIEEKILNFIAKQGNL

[5] = Inhibition of Escherichia coli IspE
[6] = target: T1, 1-deoxy-D-xylulose-5-phosphate synthase; test: Binding affinity to Deinococcus radiodurans DXS
[7] = target: T3, 1-deoxy-D-xylulose-5-phosphate synthase (Mycobacterium tuberculosis, UniProt P9WNS3); test: Binding affinity to Mycobacterium tuberculosis DXS
T3 sequence (P9WNS3 whole entry): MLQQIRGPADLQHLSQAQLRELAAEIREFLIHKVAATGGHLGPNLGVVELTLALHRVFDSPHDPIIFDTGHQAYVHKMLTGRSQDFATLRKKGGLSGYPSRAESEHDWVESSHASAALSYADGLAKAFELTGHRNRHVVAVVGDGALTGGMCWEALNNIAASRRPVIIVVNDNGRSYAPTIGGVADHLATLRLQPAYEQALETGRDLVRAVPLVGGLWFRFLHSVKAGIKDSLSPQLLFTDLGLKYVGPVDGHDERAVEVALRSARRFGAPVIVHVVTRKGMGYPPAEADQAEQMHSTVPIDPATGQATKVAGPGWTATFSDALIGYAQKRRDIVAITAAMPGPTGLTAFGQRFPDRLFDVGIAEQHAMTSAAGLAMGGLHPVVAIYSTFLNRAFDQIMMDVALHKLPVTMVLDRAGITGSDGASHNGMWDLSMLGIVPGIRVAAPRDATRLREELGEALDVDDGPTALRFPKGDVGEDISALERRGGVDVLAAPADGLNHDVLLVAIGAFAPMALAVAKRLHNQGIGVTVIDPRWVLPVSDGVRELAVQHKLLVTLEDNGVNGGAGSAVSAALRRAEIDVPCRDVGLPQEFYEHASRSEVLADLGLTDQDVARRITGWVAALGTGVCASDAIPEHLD

[8] = Inhibition of Arabidopsis thaliana DXS
[9] = Inhibition of tomato IspE; design: species or system Solanum lycopersicum
[10] = Inhibition of Aquifex aeolicus IspE
[11] = target: T4, 1-deoxy-D-xylulose-5-phosphate synthase (Escherichia coli O127:H6 (strain E2348/69 / EPEC), UniProt B7UJP3); test: Inhibition of Escherichia coli DXS
T4 sequence (B7UJP3 whole entry): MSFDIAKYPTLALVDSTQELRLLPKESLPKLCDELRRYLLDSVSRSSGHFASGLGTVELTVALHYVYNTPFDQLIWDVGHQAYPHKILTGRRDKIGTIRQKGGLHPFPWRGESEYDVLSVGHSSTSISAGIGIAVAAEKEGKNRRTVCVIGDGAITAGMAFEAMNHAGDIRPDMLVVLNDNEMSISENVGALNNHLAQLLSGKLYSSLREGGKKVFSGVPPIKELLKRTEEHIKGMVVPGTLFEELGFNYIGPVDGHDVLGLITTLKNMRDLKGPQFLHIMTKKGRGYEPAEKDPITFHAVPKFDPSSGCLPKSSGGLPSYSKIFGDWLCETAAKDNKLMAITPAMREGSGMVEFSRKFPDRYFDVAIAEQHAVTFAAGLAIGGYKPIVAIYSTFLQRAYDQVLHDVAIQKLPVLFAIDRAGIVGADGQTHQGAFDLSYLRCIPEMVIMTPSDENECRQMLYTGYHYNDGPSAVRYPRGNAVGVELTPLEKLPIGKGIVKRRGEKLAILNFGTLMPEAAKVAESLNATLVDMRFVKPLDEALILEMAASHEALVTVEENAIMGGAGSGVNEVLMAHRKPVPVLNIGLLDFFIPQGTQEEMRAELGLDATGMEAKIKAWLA

[12] = target: T3, 1-deoxy-D-xylulose-5-phosphate synthase; test: Inhibition of Mycobacterium tuberculosis DXS
[13] = Inhibition of Yersinia pestis DXS
[14] = Inhibition of Salmonella enteric DXS; design: species or system Salmonella enterica
[15] = Inhibition of Mycobacterium smegmatis IspD; design: species or system Mycolicibacterium smegmatis
[16] = Inhibition of Plasmodium falciparum Dxr
[17] = Inhibition of Escherichia coli IspD
Haemophilus influenzae = test: Antimicrobial activity against Haemophilus influenzae; format: functional
Aquifex aeolicus = test: Inhibition of Aquifex aeolicus IspH assessed as residual activity at 1 mM
Escherichia coli [18] = test: Inhibition of Escherichia coli IspF at 500 uM
Escherichia coli [19] = test: Inhibition of Escherichia coli IspF at 500 uM after 30 mins preincubation
[20] = Inhibition of Chlamydomonas DXS
[21] = target: T5, 1-deoxy-D-xylulose 5-phosphate reductoisomerase (Mycobacterium tuberculosis, UniProt P9WNS1); test: Inhibition of Mycobacterium tuberculosis Dxr
T5 sequence (P9WNS1 whole entry): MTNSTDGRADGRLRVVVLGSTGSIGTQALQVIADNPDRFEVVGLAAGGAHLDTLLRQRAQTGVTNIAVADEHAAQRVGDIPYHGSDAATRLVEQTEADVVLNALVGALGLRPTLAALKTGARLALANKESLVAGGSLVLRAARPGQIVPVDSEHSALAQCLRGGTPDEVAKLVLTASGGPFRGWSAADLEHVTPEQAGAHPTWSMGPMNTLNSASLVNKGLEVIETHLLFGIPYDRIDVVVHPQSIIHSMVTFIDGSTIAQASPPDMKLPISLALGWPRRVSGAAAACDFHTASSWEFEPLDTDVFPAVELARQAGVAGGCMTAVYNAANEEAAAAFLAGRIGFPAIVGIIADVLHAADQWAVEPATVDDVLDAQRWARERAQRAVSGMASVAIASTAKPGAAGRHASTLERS

[22] = system: Mycobacterium tuberculosis; test: Antimicrobial activity against Mycobacterium tuberculosis; format: functional, organism-based
[23] = Inhibition of Plasmodium falciparum NF54 IspE
[24] = Inhibition of Escherichia coli IspG
Escherichia coli [25] = test: Induction of Escherichia coli IspF assessed as fold increase in activity at 500 uM
[26] = Inhibition of Plasmodium falciparum IspF
[27] = Inhibition of Mycobacterium tuberculosis IspF

Cc1ncc(Cc2csc(CCO)c2C)c(N)n1 [3-DEAZATHIAMINE]
IC50 [1]: 430 µM

C#CCCOP(=O)(O)OP(=O)(O)O [BUT-3-YNYL DIPHOSPHATE]
IC50 [2]: 0.45 µM

COc1ccc2nc(NC(=O)c3cc(-c4ccccc4O)n[nH]3)sc2c1
IC50 [3]: 1.8 µM

CC(C)(C(=O)O)C(=O)N(O)Cc1ccccc1Cl
IC50 [4]: 1 µM

Cc1[nH]c2ccccc2c1C(Nc1ccccn1)c1ccccc1O (centres undefined)
IC50 [5]: 19 µM

Cc1ncc(C[n+]2csc(CCO[P@](=O)(O)OP(=O)(O)O)c2C)c(N)n1
Kd [6]: 0.114 µM
Kd [7]: 3.1 µM

O=C(O)c1ccc(-c2ccc(/C=N/NC3Nc4ccccc4S3)o2)cc1 (centres undefined)
IC50 [8]: 33 µM

NC1=N/C(=N\NC(=O)c2cc(Cl)ccn2)c2ccc3ccccc3c21
IC50 [9]: 7.2 µM

Nc1nc(=O)n(C2CCCS2)cc1S(=O)(=O)c1ccccc1 (centres undefined)
IC50 [5]: 220 µM
IC50 [10]: > 500 µM

COCCS(=O)(=O)NCC#Cc1cn(C2CCCS2)c(=O)nc1N (centres undefined)
IC50 [5]: 30 µM
IC50 [10]: > 500 µM

CCCCOP(=O)(O)C(C)=O
Ki [11]: 5.6 µM
Ki [12]: 4 µM
Ki [13]: 7.5 µM
Ki [14]: 8.4 µM

N#Cc1cnn2c(O)c(Cc3ccccc3)c(Cl)cc12
IC50 [3]: 0.035 µM

COC(c1cn(CC#Cc2cn(C3CCCS3)c(=O)nc2N)c(C2CCCCC2)n1)C(F)(F)F (centres undefined)
IC50 [5]: 9.9 µM

FC(F)(F)Oc1cccc(Cn2cnc3ccccc32)c1
IC50 [1]: 595 µM

CCCCCCCCCCCC[N+](C)(C)CCOc1ccccc1.[Br-] [DOMIPHEN BROMIDE]
IC50 [15]: 33 µg/mL

O=P(O)(O)OP(=O)(O)OCCc1cccnc1 [PYRIDIN-3-YL-ETHYL-DIPHOSPHATE]
IC50 [2]: 9.1 µM

CN(O)C(=O)CCC(c1ccccc1)P(=O)(O)O (centres undefined)
IC50 [16]: 0.0031 µM

O=P(O)(O)OC[C@@H](O)[C@@H](O)CO
IC50 [17]: 1360 µM

CC(C)(CO)C(=O)N(O)Cc1ccccc1Cl
IC50 [4]: 3.1 µM
MIC (Haemophilus influenzae): 64 µg/mL (≈ 248 µM)

C/C(=C/CONS(=O)(=O)NC(=O)OC(C)(C)C)CO
Activity (Aquifex aeolicus): 61%

COc1ccccc1-c1cnc(N)c(C#CCNS(=O)(=O)C2CC2)c1
IC50 [5]: 242 µM

O=c1c2ccccc2nc(-c2cccnc2)n1-c1ccc(Br)cn1
IC50 [5]: 3 µM

C[C@@](CO)(OP(=O)(O)O)[C@H](O)COP(=O)(O)CP(=O)(O)OC[C@H]1O[C@@H](n2ccc(N)nc2=O)[C@H](O)[C@@H]1O
inhibition (Escherichia coli [18]): 0%
inhibition (Escherichia coli [19]): 37%

CCOP(=O)(O)C(C)=O
Ki [11]: 6.7 µM

CC(=O)P(=O)(O)OCc1ccccc1
Ki [11]: 10.4 µM

CC1(C)C(=O)ON(Cc2ccccc2Cl)C1=O [KETOCLOMAZONE]
IC50 [20]: 100 µM
Ki [4]: 23.3 µM
MIC (Haemophilus influenzae): 12.5 µg/mL (≈ 49.3 µM)

Nc1nc(=O)n(C2CCCS2)cc1C#CCNS(=O)(=O)C(=O)[C@@H](O)[C@@H](O)[C@H](O)[C@H](O)CO (some centres undefined)
IC50 [5]: 407 µM
IC50 [10]: > 500 µM

O=C(CCCc1ccccc1)N(O)CCCP(=O)(O)O
IC50 [21]: 17.8 µM
IC50 [22]: 17.8 µM

C/C(=C/COC(=O)Nc1ccc(C)cc1)CO
Activity (Aquifex aeolicus): 62%

O=P(O)(O)OP(=O)(O)OCc1cccnc1
IC50 [2]: 38 µM

NC1=N/C(=N\NC(=O)c2ccccn2)c2ccc3ccccc3c21
IC50 [23]: 0.058 µM

C#CCOP(=O)(O)OP(=O)(O)O [PROP-2-YNYL DIPHOSPHATE]
IC50 [24]: 0.75 µM

C[C@@](CO)(OP(=O)(O)O)[C@H](O)COP(=O)(O)CP(=O)(O)O
fold change (FC) (Escherichia coli [25]): 1.6

Oc1c(Cc2ccccc2)c(Cl)cc2ncnn12
IC50 [3]: 0.14 µM

COc1ccc(-c2onc(C(F)(F)F)c2-c2ccc(Br)cc2)c(O)c1
IC50 [8]: 32 µM

COc1cc(C#Cc2ccc(C#CCOc3cccnc3)cn2)nc(N)n1
IC50 [5]: 8.7 µM

Oc1csc(Nc2nccs2)n1
IC50 [5]: 160 µM

CCOC(=O)C1=C(C)N=c2s/c(=C\c3cc(Br)c(O)c(Br)c3)c(=O)n2C1C1CCCS1 (centres undefined)
IC50 [26]: 9.6 µM
IC50 [27]: 6.1 µM

Nc1nc(=O)n(C2CCCO2)cc1C#CCNS(=O)(=O)C1CC1 (centres undefined)
IC50 [5]: 2 µM

Nc1nc(=O)n(C2CCCS2)cc1C#CCNS(=O)(=O)C1CC1 (centres undefined)
IC50 [5]: 1.7 µM

CN(C)c1ccnc(C(=O)N/N=C2\N=C(N)c3c2ccc2ccccc32)c1
IC50 [23]: 0.018 µM
